# Assay results taken from US20150031760A1, “PHARMACEUTICAL COMPOSITION FOR PREVENTING OR TREATING NERVOUS SYSTEM DISORDERS COMPRISING SULFURETIN OR PHARMACEUTICALLY ACCEPTABLE SALT THEREOF” (Research and Business Foundation SUNGKYUNKWAN UNIVERSITY, priority 2010, published 2015).
# Read-outs that look alike come from different tables or passages of the source.
# Columns and labels:
# PC12 cells = test: MTT (cell viability) test, corticosterone-induced cell death in PC12 cells; format: cell-based; conditions: Rattus norvegicus
# Protocol: For the experiment shown in FIG. 3, PC12 cells were cultured in DMEM medium (Hyclone, Thermo, USA) containing 10% FBS, 5% horse serum and antibiotics (Gibco-BRL, USA). […] The concentration of corticosterone was determined to be 400 μM after evaluation of cell viability.
# [1] = Free radical scavenging ability (antioxidant effect), DPPH test; format: biochemical; conditions: 30 minutes
# Protocol: 2,2-diphenyl-1-picrylhydrazyl (DPPH) was dissolved in 99.5% ethanol to a concentration of 0.1 mM. Sulfuretin was dissolved and diluted in ethanol to concentrations of 0.1, 1, 5, 10, 25, 50 and 100 μg/ml. 10 μl of the sample was added to 90 μl of DPPH and admixed several times with a pipette, and the mixture was incubated at room temperature for 30 minutes, and the absorbance at 517 nm was measured.
# SH-SY5Y cells [2] = test: LDH secretion (cytotoxicity) test; format: cell-based, human
# Protocol: (§1) The incubator was maintained at a temperature of 37° C., and a mixed gas of 95% air and 5% CO2 was continuously supplied thereto to provide suitable conditions for cell culture. The cells were cultured in a 6-well plate or a 96-well plate at each of densities of 1×10^6 and 2×10^4 cells/well 24 hours before the experiment. […] Sulfuretin was used in ethanol and used at a final concentration of 0.1% or less.
# To measure LDH secretion (cytotoxicity), an LDH cytotoxicity assay kit was used. 50 μl of the medium was taken from each well of the 96-well plate (in which the cells have been cultured) and dispensed into each well of a fresh 96-well plate, and 50 μl of a reaction reagent was added to each well, after which the plate was shielded from light. The plate was incubated in an incubator for 30 minutes, and the UV absorbance at 490 nm was measured using a microplate reader (Molecular device, USA).
# The measured absorbance was substituted into the following equation to calculate LDH secretion:
# LDH secretion (%)=(LDH secretion O.D. in medium/total LDH secretion O.D.)×100
# SH-SY5Y cells [3] = test: MTT (cell viability) test, induced cell death in SH-SY5Y cells; conditions: Homo sapiens, SH-SY5Y; for viability at 0.1 µg/mL: sulfuretin 0.1 μg/ml; for viability at 0.5 µg/mL: sulfuretin 0.5 μg/ml; for viability at 1 µg/mL: sulfuretin 1 μg/ml; for viability at 5 µg/mL: sulfuretin 5 μg/ml
# Protocol: as §1
# To measure cell viability, an MTT reduction assay was used. An MTT solution was added to each well of the 96-well plate (in which the cells have been cultured) to a final concentration of 0.5 mg/ml. The plate was incubated in an incubator for 2 hours, and the medium and the MIT solution were removed, after which DMSO was added thereto and stirred. When DMSO was completely dissolved, the UV absorbance at 540 nm was measured using a microplate reader (Molecular device, USA).
# The measured absorbance was substituted into the following equation to calculate cell viability:
# Cell viability (%)=[(O.D. of control−O.D. of test group)/O.D. of control]×100
# mice = test: Scopolamine-induced cognitive impairment, spontaneous alternation behavior Y-maze test; format: in vivo; conditions: sulfuretin 1 mg/kg, p.o., one hour before test; scopolamine 0.5 mg/kg, i.p.
# Protocol: Male ICR mice (4-weeks-old, 18-20 g) were purchased from Koatech Co., Ltd. (Pyongtaek, Korea). Mice were housed 10 per cage, allowed access to water and food ad libitum, and maintained in constant temperature (23±1° C.) and humidity (55±5%) conditions under a 12 hour light/dark cycle (lights on 07:00 to 19:00 h). All experiments were conducted in accord with the NIH Guide for the Care and Use of Laboratory Animals and with the approval of the Institutional Animal Care and Use Committee of Sungkyunkwan University.
# The spontaneous alternation behavior was measured by Y-maze which consists of a horizontal maze (30 cm long and 5 cm wide, with walls 12 cm high) with three arms (labeled A, B, and C). The maze floor and walls are constructed of dark grey, polyvinyl plastic. Mice were initially placed within one arm, and the number of alternations (i.e., consecutive entry sequences of ABC, CAB, or BCA but not BAB) and the number of arm entries were manually recorded for each mouse over an 8 minutes period. One hour before each test, the mice were given sulfuretin (0.25, 0.5, or 1 mg/kg, p.o.). After 30 minutes, memory impairment was induced by administering scopolamine (0.5 mg/kg, i.p.). […] The percentage alternation was calculated according to the following equation: Percentage alternation=[(Number of alternations)/(Total arm entries−2)]×100. […]
# [4] = read-out: cell viability, 6-hydroxydopamine-induced cell death
# [5] = read-out: cell viability, beta-amyloid-induced cell death
# [6] = read-out: cell viability, hydrogen peroxide-induced cell death
smiles,measurement,setting,value
O=C1/C(=C/c2ccc(O)c(O)c2)Oc2cc(O)ccc21 [sulfuretin],viability at 0.1 µg/mL,"PC12 cells; PC-12, read-out: cell viability",≥ 52%
same,viability at 0.5 µg/mL,"PC12 cells; PC-12, corticosterone-induced cell death, sulfuretin 0.5 μg/ml",≥ 55%
same,viability at 1 µg/mL,"PC12 cells; PC-12, corticosterone-induced cell death, sulfuretin 1 μg/ml",≥ 72%
same,viability at 5 µg/mL,"PC12 cells; PC-12, corticosterone-induced cell death, sulfuretin 5 μg/ml",≥ 90%
same,free radical scavenging ability (inhibition),[1]; sulfuretin 0.1 μg/ml,≥ 10%
same,free radical scavenging ability (inhibition),[1]; sulfuretin 1 μg/ml,≥ 18%
same,free radical scavenging ability (inhibition),[1]; sulfuretin 5 μg/ml,≥ 58%
same,free radical scavenging ability (inhibition),[1]; sulfuretin 10 μg/ml,≥ 70%
same,free radical scavenging ability (inhibition),[1]; sulfuretin 25 μg/ml,≥ 71%
same,free radical scavenging ability (inhibition),[1]; sulfuretin 50 μg/ml,≥ 73%
same,free radical scavenging ability (inhibition),[1]; sulfuretin 100 μg/ml,≥ 75%
same,LDH secretion,"SH-SY5Y cells [2]; beta-amyloid-induced, sulfuretin 0.1 μg/ml",≤ 12%
same,LDH secretion,"SH-SY5Y cells [2]; beta-amyloid-induced, sulfuretin 0.5 μg/ml",≤ 11%
same,LDH secretion,"SH-SY5Y cells [2]; beta-amyloid-induced, sulfuretin 1 μg/ml",≤ 11%
same,LDH secretion,"SH-SY5Y cells [2]; beta-amyloid-induced, sulfuretin 5 μg/ml",≤ 9%
same,LDH secretion,"SH-SY5Y cells [2]; hydrogen peroxide-induced, sulfuretin 0.1 μg/ml",≤ 77%
same,LDH secretion,"SH-SY5Y cells [2]; hydrogen peroxide-induced, sulfuretin 0.5 μg/ml",≤ 56%
same,LDH secretion,"SH-SY5Y cells [2]; hydrogen peroxide-induced, sulfuretin 1 μg/ml",≤ 33%
same,LDH secretion,"SH-SY5Y cells [2]; hydrogen peroxide-induced, sulfuretin 5 μg/ml",≤ 39%
same,viability at 0.1 µg/mL,SH-SY5Y cells [3]; [4],≥ 87%
same,viability at 0.5 µg/mL,SH-SY5Y cells [3]; [4],≥ 97%
same,viability at 1 µg/mL,SH-SY5Y cells [3]; [4],≥ 112%
same,viability at 5 µg/mL,SH-SY5Y cells [3]; [4],≥ 140%
same,viability at 0.1 µg/mL,SH-SY5Y cells [3]; [5],≥ 58%
same,viability at 0.5 µg/mL,SH-SY5Y cells [3]; [5],≥ 64%
same,viability at 1 µg/mL,SH-SY5Y cells [3]; [5],≥ 80%
same,viability at 5 µg/mL,SH-SY5Y cells [3]; [5],≥ 97%
same,viability at 0.1 µg/mL,SH-SY5Y cells [3]; [6],≥ 74%
same,viability at 0.5 µg/mL,SH-SY5Y cells [3]; [6],≥ 97%
same,viability at 1 µg/mL,SH-SY5Y cells [3]; [6],≥ 119%
same,viability at 5 µg/mL,SH-SY5Y cells [3]; [6],≥ 103%
same,decrease of spontaneous alternation behavior induced by scopolamine,mice,significantly inhibited
